In PubChem BioAssay AID2060624 (Molecular Pharmacology Branch, DTP, NCI, 2025):
pIC50: −log10 of the molar value.

Test system: 217524-143-R1-J4-PDC spheroids with HUVEC/MSC, viability
Assay: Anticancer human tumor 217524-143-R1-J4-PDC patient-derived pancreatic carcinoma cell line growth inhibition [CLK]
Details: for pIC50: curve of first compound; for viability, T/C: stronger effect = lower value
Procedure, shortened: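 Multi-cell-type spheroids combined patient-derived tumor cells with HUVEC endothelial cells and human mesenchymal stem cells. Paired agents were dosed in half-log steps down from about clinical Cmax, or from 10 microM where Cmax was unknown.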

[1] = second compound 0.0316 µM, first compound 0.0316 µM
[2] = second compound 0.0316 µM, first compound 0.1 µM
[3] = second compound 0.1 µM, first compound 0.0316 µM
[4] = second compound 0.1 µM, first compound 0.1 µM
[5] = second compound 0.316 µM, first compound 0.0316 µM
[6] = second compound 0.316 µM, first compound 0.1 µM
[7] = second compound 1 µM, first compound 0.0316 µM
[8] = second compound 1 µM, first compound 0.1 µM
[9] = second compound 3.16 µM, first compound 0.0316 µM
[10] = second compound 3.16 µM, first compound 0.1 µM
[11] = second compound 10 µM, first compound 0.0316 µM
[12] = second compound 10 µM, first compound 0.1 µM
[13] = second compound 0.0316 µM, first compound 0.316 µM
[14] = second compound 0.0316 µM, first compound 1 µM
[15] = second compound 0.0316 µM, first compound 3.16 µM
[16] = second compound 0.0316 µM, first compound 10 µM
[17] = second compound 0.1 µM, first compound 0.316 µM
[18] = second compound 0.1 µM, first compound 1 µM
[19] = second compound 0.1 µM, first compound 3.16 µM
[20] = second compound 0.1 µM, first compound 10 µM
[21] = second compound 0.316 µM, first compound 0.316 µM
[22] = second compound 0.316 µM, first compound 1 µM
[23] = second compound 0.316 µM, first compound 3.16 µM
[24] = second compound 0.316 µM, first compound 10 µM
[25] = second compound 1 µM, first compound 0.316 µM
[26] = second compound 1 µM, first compound 1 µM
[27] = second compound 1 µM, first compound 3.16 µM
[28] = second compound 1 µM, first compound 10 µM
[29] = second compound 3.16 µM, first compound 0.316 µM
[30] = second compound 3.16 µM, first compound 1 µM
[31] = second compound 3.16 µM, first compound 3.16 µM
[32] = second compound 3.16 µM, first compound 10 µM
[33] = second compound 10 µM, first compound 0.316 µM
[34] = second compound 10 µM, first compound 1 µM
[35] = second compound 10 µM, first compound 3.16 µM
[36] = second compound 10 µM, first compound 10 µM
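Further: spheroids exposed to agents for seven days before reading.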
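Wherever viability, T/C is given: 100% = DMSO vehicle control viability.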

**Q.** Cn1ncnc1[C@H]1c2n[nH]c(=O)c3cc(F)cc(c23)N[C@@H]1c1ccc(F)cc1 + CN1CCN(c2cc(C(=O)Nc3cc4cc(-c5cnn(C)c5)ccc4cn3)ccn2)CC1 was tested. Which pIC50 (second compound 0.0316 µM) did it give?
**A.** < 7.00

**Q.** And the pIC50 (second compound 0.1 µM)?
**A.** 8.77

**Q.** And the pIC50 (second compound 0.316 µM)?
**A.** > 9.50

**Q.** What about the pIC50 (second compound 1 µM) of the same compound?
**A.** > 9.50

**Q.** What about the pIC50 (second compound 3.16 µM) of the same compound?
**A.** > 9.50

**Q.** What about the pIC50 (second compound 10 µM) of the same compound?
**A.** > 9.50

**Q.** And the viability, T/C (second compound 0.0316 µM, first compound 0.000316 µM)?
**A.** 80.5%

**Q.** What about the viability, T/C (second compound 0.0316 µM, first compound 0.001 µM) of the same compound?
**A.** 71%

**Q.** And the viability, T/C (second compound 0.0316 µM, first compound 0.00316 µM)?
**A.** 61.8%

**Q.** What about the viability, T/C (second compound 0.0316 µM, first compound 0.01 µM) of the same compound?
**A.** 65.4%

**Q.** And the viability, T/C [1]?
**A.** 84.7%

**Q.** And the viability, T/C [2]?
**A.** 60.3%

**Q.** And the viability, T/C (second compound 0.1 µM, first compound 0.000316 µM)?
**A.** 54.1%

**Q.** And the viability, T/C (second compound 0.1 µM, first compound 0.001 µM)?
**A.** 48.5%

**Q.** What about the viability, T/C (second compound 0.1 µM, first compound 0.00316 µM) of the same compound?
**A.** 50.8%

**Q.** What about the viability, T/C (second compound 0.1 µM, first compound 0.01 µM) of the same compound?
**A.** 43.5%

**Q.** What about the viability, T/C [3] of the same compound?
**A.** 50.1%

**Q.** And the viability, T/C [4]?
**A.** 42.8%

**Q.** What about the viability, T/C (second compound 0.316 µM, first compound 0.000316 µM) of the same compound?
**A.** 21.2%

**Q.** And the viability, T/C (second compound 0.316 µM, first compound 0.001 µM)?
**A.** 23.4%

**Q.** What about the viability, T/C (second compound 0.316 µM, first compound 0.00316 µM) of the same compound?
**A.** 18.8%

**Q.** What about the viability, T/C (second compound 0.316 µM, first compound 0.01 µM) of the same compound?
**A.** 17.7%

**Q.** And the viability, T/C [5]?
**A.** 18.8%

**Q.** What about the viability, T/C [6] of the same compound?
**A.** 17.2%

**Q.** What about the viability, T/C (second compound 1 µM, first compound 0.000316 µM) of the same compound?
**A.** 1.28%

**Q.** What about the viability, T/C (second compound 1 µM, first compound 0.001 µM) of the same compound?
**A.** 1.4%

**Q.** What about the viability, T/C (second compound 1 µM, first compound 0.00316 µM) of the same compound?
**A.** 1.52%

**Q.** What about the viability, T/C (second compound 1 µM, first compound 0.01 µM) of the same compound?
**A.** 1.16%

**Q.** And the viability, T/C [7]?
**A.** 1.67%

**Q.** What about the viability, T/C [8] of the same compound?
**A.** 1.12%

**Q.** And the viability, T/C (second compound 3.16 µM, first compound 0.000316 µM)?
**A.** 0.67%

**Q.** And the viability, T/C (second compound 3.16 µM, first compound 0.001 µM)?
**A.** 0.66%

**Q.** And the viability, T/C (second compound 3.16 µM, first compound 0.00316 µM)?
**A.** 0.75%

**Q.** What about the viability, T/C (second compound 3.16 µM, first compound 0.01 µM) of the same compound?
**A.** 0.62%

**Q.** And the viability, T/C [9]?
**A.** 0.71%

**Q.** What about the viability, T/C [10] of the same compound?
**A.** 0.48%

**Q.** And the viability, T/C (second compound 10 µM, first compound 0.000316 µM)?
**A.** 0.16%

**Q.** And the viability, T/C (second compound 10 µM, first compound 0.001 µM)?
**A.** 0.26%

**Q.** What about the viability, T/C (second compound 10 µM, first compound 0.00316 µM) of the same compound?
**A.** 0.15%

**Q.** What about the viability, T/C (second compound 10 µM, first compound 0.01 µM) of the same compound?
**A.** 0.25%

**Q.** What about the viability, T/C [11] of the same compound?
**A.** 0.18%

**Q.** And the viability, T/C [12]?
**A.** 0.17%

**Q.** What does the source list for Nc1ccn(C2OC(CO)C(O)C2(F)F)c(=O)n1 (stereo unspecified) + CN1CCN(c2cc(C(=O)Nc3cc4cc(-c5cnn(C)c5)ccc4cn3)ccn2)CC1?
**A.** pIC50 (second compound 0.0316 µM): 7.36; pIC50 (second compound 0.1 µM): > 7.50; pIC50 (second compound 0.316 µM): > 7.50; pIC50 (second compound 1 µM): > 7.50; pIC50 (second compound 3.16 µM): > 7.50; pIC50 (second compound 10 µM): > 7.50; viability, T/C [1]: 60.1%; viability, T/C [2]: 22.9%; viability, T/C [13]: 20.5%; viability, T/C [14]: 19.9%; viability, T/C [15]: 24.1%; viability, T/C [16]: 22.6%; viability, T/C [3]: 36%; viability, T/C [4]: 22.9%; viability, T/C [17]: 16.1%; viability, T/C [18]: 16.9%; viability, T/C [19]: 18.9%; viability, T/C [20]: 17.9%; viability, T/C [5]: 15.4%; viability, T/C [6]: 10.9%; viability, T/C [21]: 11.6%; viability, T/C [22]: 9.15%; viability, T/C [23]: 13.3%; viability, T/C [24]: 10.8%; viability, T/C [7]: 1.8%; viability, T/C [8]: 1.09%; viability, T/C [25]: 1.22%; viability, T/C [26]: 1.31%; viability, T/C [27]: 1.04%; viability, T/C [28]: 1.02%; viability, T/C [9]: 0.72%; viability, T/C [10]: 0.59%; viability, T/C [29]: 0.75%; viability, T/C [30]: 0.76%; viability, T/C [31]: 0.87%; viability, T/C [32]: 0.72%; viability, T/C [11]: 0.2%; viability, T/C [12]: 0.2%; viability, T/C [33]: 0.21%; viability, T/C [34]: 0.25%; viability, T/C [35]: 0.24%; viability, T/C [36]: 0.22%

**Q.** O=C(c1cc(Cc2n[nH]c(=O)c3ccccc23)ccc1F)N1CCN(C(=O)C2CC2)CC1 + CN1CCN(c2cc(C(=O)Nc3cc4cc(-c5cnn(C)c5)ccc4cn3)ccn2)CC1 was tested. Which pIC50 (second compound 0.0316 µM) did it give?
**A.** < 5.00

**Q.** What about the pIC50 (second compound 0.1 µM) of the same compound?
**A.** 6.27

**Q.** What about the pIC50 (second compound 0.316 µM) of the same compound?
**A.** > 7.50

**Q.** And the pIC50 (second compound 1 µM)?
**A.** > 7.50

**Q.** And the pIC50 (second compound 3.16 µM)?
**A.** > 7.50

**Q.** And the pIC50 (second compound 10 µM)?
**A.** > 7.50

**Q.** What about the viability, T/C [1] of the same compound?
**A.** 76.5%

**Q.** And the viability, T/C [2]?
**A.** 91.6%

**Q.** What about the viability, T/C [13] of the same compound?
**A.** 71.2%

**Q.** And the viability, T/C [14]?
**A.** 90.3%

**Q.** And the viability, T/C [15]?
**A.** 68.5%

**Q.** And the viability, T/C [16]?
**A.** 64.3%

**Q.** And the viability, T/C [3]?
**A.** 51.5%

**Q.** What about the viability, T/C [4] of the same compound?
**A.** 46.6%

**Q.** And the viability, T/C [17]?
**A.** 49.7%

**Q.** And the viability, T/C [18]?
**A.** 58.5%

**Q.** And the viability, T/C [19]?
**A.** 49.8%

**Q.** And the viability, T/C [20]?
**A.** 43.5%

**Q.** What about the viability, T/C [5] of the same compound?
**A.** 24.3%

**Q.** And the viability, T/C [6]?
**A.** 22.4%

**Q.** And the viability, T/C [21]?
**A.** 20%

**Q.** What about the viability, T/C [22] of the same compound?
**A.** 18%

**Q.** And the viability, T/C [23]?
**A.** 21.4%

**Q.** What about the viability, T/C [24] of the same compound?
**A.** 17.5%

**Q.** And the viability, T/C [7]?
**A.** 2.03%

**Q.** And the viability, T/C [8]?
**A.** 1.38%

**Q.** And the viability, T/C [25]?
**A.** 1.73%

**Q.** What about the viability, T/C [26] of the same compound?
**A.** 1.56%

**Q.** And the viability, T/C [27]?
**A.** 1.8%

**Q.** And the viability, T/C [28]?
**A.** 2%

**Q.** And the viability, T/C [9]?
**A.** 0.89%

**Q.** What about the viability, T/C [10] of the same compound?
**A.** 1.08%

**Q.** And the viability, T/C [29]?
**A.** 0.76%

**Q.** And the viability, T/C [30]?
**A.** 1.05%

**Q.** And the viability, T/C [31]?
**A.** 0.74%

**Q.** And the viability, T/C [32]?
**A.** 0.87%

**Q.** What about the viability, T/C [11] of the same compound?
**A.** 0.16%

**Q.** And the viability, T/C [12]?
**A.** 0.22%

**Q.** And the viability, T/C [33]?
**A.** 0.23%

**Q.** What about the viability, T/C [34] of the same compound?
**A.** 0.22%

**Q.** What about the viability, T/C [35] of the same compound?
**A.** 0.3%

**Q.** What about the viability, T/C [36] of the same compound?
**A.** 0.31%
